Reference: PubChem BioAssay AID1259407 (Chemical Carcinogenesis Research Information System (CCRIS), 2018)
Activity calls are given as the source filed them. How the calls were made is not given here.

System: CCRIS mutagenicity, Ames/micronucleus/aberration tests
Assay: CCRIS mutagenicity studies
[1] = Test System: AMES SALMONELLA TYPHIMURIUM, Strain/Indicator: TA98, Metabolic Activation: NONE, Method: STANDARD PLATE
[2] = Test System: AMES SALMONELLA TYPHIMURIUM, Strain/Indicator: TA100, Metabolic Activation: NONE, Method: STANDARD PLATE
[3] = Test System: AMES SALMONELLA TYPHIMURIUM, Strain/Indicator: TA98, Metabolic Activation: NONE, Method: PREINCUBATION
[4] = Test System: AMES SALMONELLA TYPHIMURIUM, Strain/Indicator: TA100, Metabolic Activation: NONE, Method: PREINCUBATION
[5] = Test System: AMES SALMONELLA TYPHIMURIUM, Strain/Indicator: TA102, Metabolic Activation: NONE, Method: PREINCUBATION
[6] = Test System: AMES SALMONELLA TYPHIMURIUM, Strain/Indicator: TA102, Metabolic Activation: RAT, LIVER, S-9, AROCLOR 1254, Method: PREINCUBATION

Compound: CC(C)C[C@H](NC(=O)COc1cc(Cl)c(Cl)cc1Cl)C(=O)O
- mutagenic call (Test System: AMES SALMONELLA TYPHIMURIUM, Strain/Indicator: TA97, Metabolic Activation: NONE, Method: STANDARD PLATE): inactive; negative
- mutagenic call (Test System: AMES SALMONELLA TYPHIMURIUM, Strain/Indicator: TA97, Metabolic Activation: RAT, LIVER, S-9, AROCLOR 1254, Method: STANDARD PLATE): inactive; negative
- mutagenic call [1]: inactive; negative
- mutagenic call (Test System: AMES SALMONELLA TYPHIMURIUM, Strain/Indicator: TA98, Metabolic Activation: RAT, LIVER, S-9, AROCLOR 1254, Method: STANDARD PLATE): inactive; negative
- mutagenic call [2]: inactive; negative
- mutagenic call (Test System: AMES SALMONELLA TYPHIMURIUM, Strain/Indicator: TA100, Metabolic Activation: RAT, LIVER, S-9, AROCLOR 1254, Method: STANDARD PLATE): inactive; negative
- mutagenic call (Test System: AMES SALMONELLA TYPHIMURIUM, Strain/Indicator: TA1535, Metabolic Activation: NONE, Method: STANDARD PLATE): inactive; negative
- mutagenic call (Test System: AMES SALMONELLA TYPHIMURIUM, Strain/Indicator: TA1535, Metabolic Activation: RAT, LIVER, S-9, AROCLOR 1254, Method: STANDARD PLATE): inactive; negative
- mutagenic call (Test System: AMES SALMONELLA TYPHIMURIUM, Strain/Indicator: TA1538, Metabolic Activation: NONE, Method: STANDARD PLATE): inactive; negative
- mutagenic call (Test System: AMES SALMONELLA TYPHIMURIUM, Strain/Indicator: TA1538, Metabolic Activation: RAT, LIVER, S-9, AROCLOR 1254, Method: STANDARD PLATE): inactive; negative

Compound: [Cl][Cu][Cl]
- mutagenic call (Test System: E. COLI, Strain/Indicator: WP2 UVRA, Metabolic Activation: NONE, Method: SPOT TEST): active; positive
- mutagenic call (Test System: E. COLI, Strain/Indicator: WP2 UVRA, Metabolic Activation: NONE, Method: STANDARD PLATE): active; positive

Compound: COC1=C(OC)C(=O)C(C/C=C(\C)CC/C=C(\C)CC/C=C(\C)CC/C=C(\C)CC/C=C(\C)CC/C=C(\C)CC/C=C(\C)CC/C=C(\C)CC/C=C(\C)CCC=C(C)C)=C(C)C1=O
- mutagenic call [3]: inactive; negative
- mutagenic call (Test System: AMES SALMONELLA TYPHIMURIUM, Strain/Indicator: TA98, Metabolic Activation: RAT, LIVER, S-9, PHENOBARBITAL AND 5,6-BENZOFLAVONE, Method: PREINCUBATION): inactive; negative
- mutagenic call [4]: inactive; negative
- mutagenic call (Test System: AMES SALMONELLA TYPHIMURIUM, Strain/Indicator: TA100, Metabolic Activation: RAT, LIVER, S-9, PHENOBARBITAL AND 5,6-BENZOFLAVONE, Method: PREINCUBATION): inactive; negative
- mutagenic call (Test System: AMES SALMONELLA TYPHIMURIUM, Strain/Indicator: TA1535, Metabolic Activation: NONE, Method: PREINCUBATION): inactive; negative
- mutagenic call (Test System: AMES SALMONELLA TYPHIMURIUM, Strain/Indicator: TA1535, Metabolic Activation: RAT, LIVER, S-9, PHENOBARBITAL AND 5,6-BENZOFLAVONE, Method: PREINCUBATION): inactive; negative
- mutagenic call (Test System: AMES SALMONELLA TYPHIMURIUM, Strain/Indicator: TA1537, Metabolic Activation: NONE, Method: PREINCUBATION): inactive; negative
- mutagenic call (Test System: AMES SALMONELLA TYPHIMURIUM, Strain/Indicator: TA1537, Metabolic Activation: RAT, LIVER, S-9, PHENOBARBITAL AND 5,6-BENZOFLAVONE, Method: PREINCUBATION): inactive; negative
- mutagenic call (Test System: E. COLI, Strain/Indicator: WP2UVRA, Metabolic Activation: NONE, Method: PREINCUBATION): inactive; negative
- mutagenic call (Test System: E. COLI, Strain/Indicator: WP2UVRA, Metabolic Activation: RAT, LIVER, S-9, PHENOBARBITAL AND 5,6-BENZOFLAVONE, Method: PREINCUBATION): inactive; negative

Compound: COc1c2cc3c(cc2nc2occc12)OCO3
- mutagenic call (Test System: AMES SALMONELLA TYPHIMURIUM, Strain/Indicator: TA98, Metabolic Activation: RAT, LIVER, S-9, PHENOBARBITAL, Method: STANDARD PLATE): active; positive
- mutagenic call (Test System: AMES SALMONELLA TYPHIMURIUM, Strain/Indicator: TA100, Metabolic Activation: RAT, LIVER, S-9, PHENOBARBITAL, Method: STANDARD PLATE): active; positive

Compound: N#[N+]c1ccc([O-])cc1
- mutagenic call [3]: active; positive
- mutagenic call (Test System: AMES SALMONELLA TYPHIMURIUM, Strain/Indicator: TA98, Metabolic Activation: RAT, LIVER, S-9, POLYCHLORINATED BIPHENYLS, Method: PREINCUBATION): active; positive
- mutagenic call [4]: active; positive
- mutagenic call (Test System: AMES SALMONELLA TYPHIMURIUM, Strain/Indicator: TA100, Metabolic Activation: RAT, LIVER, S-9, POLYCHLORINATED BIPHENYLS, Method: PREINCUBATION): active; positive

Compound: CC(N)C(=O)O (stereo unspecified)
- mutagenic call (Test System: AMES SALMONELLA TYPHIMURIUM, Strain/Indicator: TA98, Metabolic Activation: RAT LIVER, S-9, CHLOROPHENE, Method: STANDARD PLATE (COMPOUND HEATED AT 250 DEGREES CELSIUS FOR 20 MIN)): inactive; negative

Compound: COc1ccc2c3c(cccc13)OC([N+](=O)[O-])=C2
- mutagenic call [1]: inactive; negative
- mutagenic call (Test System: AMES SALMONELLA TYPHIMURIUM, Strain/Indicator: TA98, Metabolic Activation: S-9, Method: STANDARD PLATE): inactive; negative
- mutagenic call [2]: active; positive
- mutagenic call (Test System: AMES SALMONELLA TYPHIMURIUM, Strain/Indicator: TA100, Metabolic Activation: S-9, Method: STANDARD PLATE): inactive; negative

Compound: Clc1ccc(C(Cl)(Cl)Cl)cc1Cl
- mutagenic call (Test System: AMES SALMONELLA TYPHIMURIUM, Strain/Indicator: TA98, Metabolic Activation: HAMSTER, LIVER, S-9, AROCLOR 1254 (30%), Method: PREINCUBATION): active; positive
- mutagenic call [3]: inactive; negative
- mutagenic call (Test System: AMES SALMONELLA TYPHIMURIUM, Strain/Indicator: TA98, Metabolic Activation: RAT, LIVER, S-9, AROCLOR 1254 (30%), Method: PREINCUBATION): active; positive
- mutagenic call (Test System: AMES SALMONELLA TYPHIMURIUM, Strain/Indicator: TA100, Metabolic Activation: HAMSTER, LIVER, S-9, AROCLOR 1254 (30%), Method: PREINCUBATION): active; positive
- mutagenic call [4]: inactive; negative
- mutagenic call (Test System: AMES SALMONELLA TYPHIMURIUM, Strain/Indicator: TA100, Metabolic Activation: RAT, LIVER, S-9, AROCLOR 1254 (30%), Method: PREINCUBATION): active; positive

Compound: Fc1ccc(CCl)cc1
- mutagenic call [2]: inactive; negative

Compound: Cc1ccsc1
- mutagenic call [3]: inactive; negative
- mutagenic call (Test System: AMES SALMONELLA TYPHIMURIUM, Strain/Indicator: TA98, Metabolic Activation: RAT, LIVER, S-9, AROCLOR 1254, Method: PREINCUBATION): inactive; negative
- mutagenic call [4]: inactive; negative
- mutagenic call (Test System: AMES SALMONELLA TYPHIMURIUM, Strain/Indicator: TA100, Metabolic Activation: RAT, LIVER, S-9, AROCLOR 1254, Method: PREINCUBATION): inactive; negative
- mutagenic call [5]: inactive; negative
- mutagenic call [6]: inactive; negative

Compound: O=C1O[C@H]([C@H](O)CO)C(O)=C1O
- mutagenic call (End Point: IN VIVO MICRONUCLEUS, Test System: BONE MARROW POLYCHROMATIC ERYTHROCYTES, Species: MOUSE, Strain/Sex: DDY/MALE, Route: IP): inactive; negative
- mutagenic call (Test System: AMES SALMONELLA TYPHIMURIUM, Strain/Indicator: TA97, Metabolic Activation: NONE, Method: PREINCUBATION): inactive; negative
- mutagenic call (Test System: AMES SALMONELLA TYPHIMURIUM, Strain/Indicator: TA97, Metabolic Activation: RAT, LIVER, S-9, AROCLOR 1254, Method: PREINCUBATION): inactive; negative
- mutagenic call [5]: inactive; negative
- mutagenic call [6]: inactive; negative
